Consider two molecules from ChEMBL document CHEMBL3785043, “Exploring the purine core of 3'-C-ethynyladenosine (EAdo) in search of novel nucleoside therapeutics” (Bioorg Med Chem Lett, 2016).

Activity calls are given as the source filed them. The rule behind the calls is not given here.

In the first assay the test system is Influenza A virus. Description: Antiviral activity against Influenza virus A H3N2 at 100 uM. Type of assay: functional, organism-based.
Settings: not given
On to `C#C[C@@]1(O)[C@@H](CO)O[C@@H](n2cnc3c(Cl)nc(N)nc32)[C@@H]1O`, for which the outcome was inactive.

Turning to `C#C[C@@]1(O)[C@@H](CO)O[C@@H](n2cnc3c(OC)nc(Cl)nc32)[C@@H]1O`, the result was inactive.

For a further assay, the system named is Influenza B virus. Description: Antiviral activity against Influenza virus B at 100 uM. The class given is functional, organism-based.
Settings: not given
On to `C#C[C@@]1(O)[C@@H](CO)O[C@@H](n2cnc3c(Cl)nc(N)nc32)[C@@H]1O`, for which the result was inactive.

Take `C#C[C@@]1(O)[C@@H](CO)O[C@@H](n2cnc3c(OC)nc(Cl)nc32)[C@@H]1O`: the result was inactive.

In another assay the test system is Mammalian orthoreovirus 1. The experiment in a line: Antiviral activity against Reovirus 1 at 100 uM. Type of assay: functional.
Settings: not given
On to `C#C[C@@]1(O)[C@@H](CO)O[C@@H](n2cnc3c(Cl)nc(N)nc32)[C@@H]1O`, for which the outcome was inactive.

For the molecule `C#C[C@@]1(O)[C@@H](CO)O[C@@H](n2cnc3c(OC)nc(Cl)nc32)[C@@H]1O`, the result was inactive.

A further assay relates to Punta Toro virus. The experiment in a line: Antiviral activity against Punta Toro virus at 100 uM. Type of assay: functional, organism-based.
Settings: not given
On to `C#C[C@@]1(O)[C@@H](CO)O[C@@H](n2cnc3c(Cl)nc(N)nc32)[C@@H]1O`, for which the result was inactive.

In the case of `C#C[C@@]1(O)[C@@H](CO)O[C@@H](n2cnc3c(OC)nc(Cl)nc32)[C@@H]1O`, the outcome was inactive.

A further assay deals with Human immunodeficiency virus 1. Description: Antiviral activity against HIV1 3B infected in human MT4 cells at 100 uM preincubated with cells for 30 mins followed by HIV inoculation measured after 4 to 5 days by microscopic analysis. Type of assay: functional, organism-based.
Settings: not given
Regarding `C#C[C@@]1(O)[C@@H](CO)O[C@@H](n2cnc3c(Cl)nc(N)nc32)[C@@H]1O`, the result was inactive.

Turning to `C#C[C@@]1(O)[C@@H](CO)O[C@@H](n2cnc3c(OC)nc(Cl)nc32)[C@@H]1O`, the outcome was inactive.

The test system of a further assay is Human immunodeficiency virus 1. Description: Antiviral activity against HIV 1 NL4-3 infected in human MT4 cells at 100 uM preincubated with cells for 30 mins followed by HIV inoculation measured after 4 to 5 days by microscopic analysis. The class given is functional, organism-based.
Settings: not given
Take `C#C[C@@]1(O)[C@@H](CO)O[C@@H](n2cnc3c(Cl)nc(N)nc32)[C@@H]1O`: the outcome was inactive.

Consider `C#C[C@@]1(O)[C@@H](CO)O[C@@H](n2cnc3c(OC)nc(Cl)nc32)[C@@H]1O`, for which the outcome was inactive.

The test system of another assay is Human immunodeficiency virus 2. The experiment in a line: Antiviral activity against HIV2 ROD infected in human MT4 cells at 100 uM preincubated with cells for 30 mins followed by HIV inoculation measured after 4 to 5 days by microscopic analysis. Type of assay: functional, organism-based. The settings on record: ISOLATE ROD.
With `C#C[C@@]1(O)[C@@H](CO)O[C@@H](n2cnc3c(Cl)nc(N)nc32)[C@@H]1O`, the outcome was inactive.

Regarding `C#C[C@@]1(O)[C@@H](CO)O[C@@H](n2cnc3c(OC)nc(Cl)nc32)[C@@H]1O`, the outcome was inactive.

A further assay relates to L1210. Description: Cytostatic activity against mouse L1210 cells after 48 hrs by Coulter counter method. Type of assay: functional, cell-based. Conditions: L1210, 48 h.
On to `C#C[C@@]1(O)[C@@H](CO)O[C@@H](n2cnc3c(Cl)nc(N)nc32)[C@@H]1O`, for which the IC50 was above 250 µM.

Regarding `C#C[C@@]1(O)[C@@H](CO)O[C@@H](n2cnc3c(OC)nc(Cl)nc32)[C@@H]1O`, the IC50 was above 250 µM.

The next assay has as its system CCRF-CEM. The experiment in a line: Cytostatic activity against human CEM cells after 72 hrs by Coulter counter method.
Settings: not given
Type of assay: functional, cell-based.
Turning to `C#C[C@@]1(O)[C@@H](CO)O[C@@H](n2cnc3c(Cl)nc(N)nc32)[C@@H]1O`, the concentration for half-maximal inhibition (IC50) is above 250 µM.

As for `C#C[C@@]1(O)[C@@H](CO)O[C@@H](n2cnc3c(OC)nc(Cl)nc32)[C@@H]1O`, the half-maximal inhibitory concentration (IC50) was found to be 210 µM.

For a further assay, the system named is Sindbis virus. The experiment in a line: Antiviral activity against Sindbis virus at 100 uM. The class given is functional, organism-based.
Settings: not given
Regarding `C#C[C@@]1(O)[C@@H](CO)O[C@@H](n2cnc3c(Cl)nc(N)nc32)[C@@H]1O`, the outcome was inactive.

Consider `C#C[C@@]1(O)[C@@H](CO)O[C@@H](n2cnc3c(OC)nc(Cl)nc32)[C@@H]1O`, for which the result was inactive.

The test system of a further assay is HeLa. The experiment in a line: Cytostatic activity against human HeLa cells after 72 hrs by Coulter counter method. Type of assay: functional, cell-based.
Settings: not given
The molecule `C#C[C@@]1(O)[C@@H](CO)O[C@@H](n2cnc3c(Cl)nc(N)nc32)[C@@H]1O` came in with an IC50 above 250 µM.

In turn, `C#C[C@@]1(O)[C@@H](CO)O[C@@H](n2cnc3c(OC)nc(Cl)nc32)[C@@H]1O` yielded an IC50 of 175 µM.

A further assay has as its system Human alphaherpesvirus 1. Description: Antiviral activity against Aciclovir-resistant thymidine kinase-deficient HSV-1 KOS at 100 uM. The class given is functional, organism-based.
Settings: not given
Turning to `C#C[C@@]1(O)[C@@H](CO)O[C@@H](n2cnc3c(Cl)nc(N)nc32)[C@@H]1O`, the result was inactive.

On to `C#C[C@@]1(O)[C@@H](CO)O[C@@H](n2cnc3c(OC)nc(Cl)nc32)[C@@H]1O`, for which the outcome was inactive.

Another assay relates to Human betaherpesvirus 5. The experiment in a line: Antiviral activity against Human cytomegalovirus AD169 at 100 uM.
Settings: not given
The class given is functional, organism-based.
For the molecule `C#C[C@@]1(O)[C@@H](CO)O[C@@H](n2cnc3c(Cl)nc(N)nc32)[C@@H]1O`, the outcome was inactive.

In the case of `C#C[C@@]1(O)[C@@H](CO)O[C@@H](n2cnc3c(OC)nc(Cl)nc32)[C@@H]1O`, the outcome was inactive.

A further assay concerns Human betaherpesvirus 5. Description: Antiviral activity against Human cytomegalovirus Davis at 100 uM. Type of assay: functional, organism-based.
Settings: not given
On to `C#C[C@@]1(O)[C@@H](CO)O[C@@H](n2cnc3c(Cl)nc(N)nc32)[C@@H]1O`, for which the result was inactive.

For the molecule `C#C[C@@]1(O)[C@@H](CO)O[C@@H](n2cnc3c(OC)nc(Cl)nc32)[C@@H]1O`, the result was inactive.

The subject of the next assay is Vesicular stomatitis virus. The experiment in a line: Antiviral activity against VSV at 100 uM.
Settings: not given
The class given is functional, organism-based.
As to `C#C[C@@]1(O)[C@@H](CO)O[C@@H](n2cnc3c(Cl)nc(N)nc32)[C@@H]1O`, the result was inactive.

`C#C[C@@]1(O)[C@@H](CO)O[C@@H](n2cnc3c(OC)nc(Cl)nc32)[C@@H]1O`: the result was inactive.

Another assay concerns Human alphaherpesvirus 1. Description: Antiviral activity against HSV-1 KOS at 100 uM. Type of assay: functional, organism-based.
Settings: not given
In the case of `C#C[C@@]1(O)[C@@H](CO)O[C@@H](n2cnc3c(Cl)nc(N)nc32)[C@@H]1O`, the result was inactive.

Regarding `C#C[C@@]1(O)[C@@H](CO)O[C@@H](n2cnc3c(OC)nc(Cl)nc32)[C@@H]1O`, the result was inactive.

The subject of another assay is Human alphaherpesvirus 2. Description: Antiviral activity against HSV-2 lyons at 100 uM. The class given is functional, organism-based.
Settings: not given
For the molecule `C#C[C@@]1(O)[C@@H](CO)O[C@@H](n2cnc3c(Cl)nc(N)nc32)[C@@H]1O`, the result was inactive.

For `C#C[C@@]1(O)[C@@H](CO)O[C@@H](n2cnc3c(OC)nc(Cl)nc32)[C@@H]1O`, the result was inactive.

A further assay concerns Human alphaherpesvirus 2. The experiment in a line: Antiviral activity against HSV-2 G at 100 uM. Type of assay: functional, organism-based. The settings on record: strain G.
With `C#C[C@@]1(O)[C@@H](CO)O[C@@H](n2cnc3c(Cl)nc(N)nc32)[C@@H]1O`, the result was inactive.

As for `C#C[C@@]1(O)[C@@H](CO)O[C@@H](n2cnc3c(OC)nc(Cl)nc32)[C@@H]1O`, the outcome was inactive.

In another assay the test system is Vaccinia virus. The experiment in a line: Antiviral activity against Vaccinia virus Lederle. The class given is functional, organism-based. Conditions: Orthopoxvirus vaccinia.
As for `C#C[C@@]1(O)[C@@H](CO)O[C@@H](n2cnc3c(Cl)nc(N)nc32)[C@@H]1O`, the concentration for a half-maximal effect (EC50) came to 51 µM. That is a double-digit micromolar value.

A further assay relates to Human adenovirus 2. Description: Antiviral activity against Adenovirus 2 at 100 uM. Type of assay: functional, organism-based.
Settings: not given
For the molecule `C#C[C@@]1(O)[C@@H](CO)O[C@@H](n2cnc3c(Cl)nc(N)nc32)[C@@H]1O`, the result was inactive.

Consider `C#C[C@@]1(O)[C@@H](CO)O[C@@H](n2cnc3c(OC)nc(Cl)nc32)[C@@H]1O`, for which the outcome was inactive.

A further assay relates to Respiratory syncytial virus. Description: Antiviral activity against Respiratory syncytial virus long at 100 uM. Type of assay: functional, organism-based.
Settings: not given
On to `C#C[C@@]1(O)[C@@H](CO)O[C@@H](n2cnc3c(Cl)nc(N)nc32)[C@@H]1O`, for which the result was inactive.

For `C#C[C@@]1(O)[C@@H](CO)O[C@@H](n2cnc3c(OC)nc(Cl)nc32)[C@@H]1O`, the result was inactive.

The next assay deals with Coxsackievirus B4. The experiment in a line: Antiviral activity against Coxsackie B4 virus at 100 uM.
Settings: not given
Type of assay: functional, organism-based.
As to `C#C[C@@]1(O)[C@@H](CO)O[C@@H](n2cnc3c(Cl)nc(N)nc32)[C@@H]1O`, the result was inactive.

For `C#C[C@@]1(O)[C@@H](CO)O[C@@H](n2cnc3c(OC)nc(Cl)nc32)[C@@H]1O`, the outcome was inactive.

For the next assay, the system named is Human respirovirus 3. The experiment in a line: Antiviral activity against parainfluenza virus 3 at 100 uM.
Settings: not given
Type of assay: functional, organism-based.
On to `C#C[C@@]1(O)[C@@H](CO)O[C@@H](n2cnc3c(Cl)nc(N)nc32)[C@@H]1O`, for which the outcome was inactive.

For the molecule `C#C[C@@]1(O)[C@@H](CO)O[C@@H](n2cnc3c(OC)nc(Cl)nc32)[C@@H]1O`, the result was inactive.

For the next assay, the system named is Influenza A virus. The experiment in a line: Antiviral activity against Influenza virus A H1N1 at 100 uM. The class given is functional, organism-based.
Settings: not given
For `C#C[C@@]1(O)[C@@H](CO)O[C@@H](n2cnc3c(Cl)nc(N)nc32)[C@@H]1O`, the result was inactive.

Turning to `C#C[C@@]1(O)[C@@H](CO)O[C@@H](n2cnc3c(OC)nc(Cl)nc32)[C@@H]1O`, the outcome was inactive.

Usually IC50 stands for the concentration at which inhibition is half-maximal. By EC50 is commonly meant the concentration at which the effect is half-maximal. A low value points to higher potency in that assay.
